We go through one compound from patent US20230405000A1, “TABLET FOR USE IN TREATING HUNTINGTON'S DISEASE AND METHOD OF MAKING THE SAME” (PTC THERAPEUTICS, INC., priority 2020, published 2023).

Entries after “also recorded” stand apart in the source; their conditions may differ.

The nature of series [1]: Phase 1 study: safety and tolerability in healthy subjects. Format: in vivo, human. The protocol:
Phase 1 Dose Escalation Study was initiated to assess the safety and pharmacokinetics of Compound 1 Oral Tablets (5 mg and 50 mg) compared to placebo in healthy subjects.
(i) To characterize the safety and tolerability of single ascending doses of Compound 1 in healthy subjects; (ii) To characterize the safety and tolerability of Compound 1 administered for 14 or up to 21 days in healthy subjects; (iii) To characterize the pharmacokinetics in plasma and cerebrospinal fluid (CSF) after administration of Compound 1 for 7 days in healthy subjects; (iv) To characterize the food effect on the pharmacokinetics (PK) in plasma of Compound 1 after administration of a single dose of Compound 1 in healthy subjects; and, (v) To characterize the safety and tolerability of Compound 1 administered for up to 28 days in healthy subjects.
The study was monitored by a Safety Review Committee (SRC). […] Safety and tolerability was assessed by the SRC between each cohort prior to ascending from one dose level to the next higher dose level in Part 1 (single ascending dose [SAD]) and fart 2 (multiple ascending dose [MAD]), and prior to initiating Part 3 (CSF), Part 4 (FE), and Part 5.
The following parameters were defined as parameters regarding safety and tolerability: […]
Change from baseline to each scheduled time point up to EOS for vital signs; Change from baseline to each scheduled time point up to EOS for ECG parameters; Change from baseline to each scheduled time point up to EOS for clinical laboratory tests; Changes from baseline in C-SSRS scores (Part 2, Part 3, and Part 5 only); Treatment-emergent adverse events (AEs) up to EOS; Treatment-emergent AEs leading to premature discontinuation of study drug; Treatment-emergent serious adverse events (SAEs) up to FOS; and, Abnormalities in physical examination.

The next series relates to HTT mRNA. Description: Phase 1 study: HTT mRNA in whole blood of healthy volunteers (RT-PCR). In kind it is in vivo, human. From the text:
(i) To explore the effect of single dose of Compound 1 administered on huntingtin (HTT) premRNA splicing in the blood of healthy subjects; (i) To explore the effect of Compound 1 administered for 14 or up to 21 days on HTT pre-m RNA splicing and HTT protein levels in the blood of healthy subjects; (ii) To explore the effect of single dose of Compound 1 administered (with food) on HTT pre-mRNA splicing in the blood of healthy subjects; and, (iii) To explore the effect of Compound 1 administered for up to 28 days on HTT premRNA splicing and HTT protein levels in the blood of healthy subjects.
The single ascending dose (SAD) part of the study was randomized, double-blinded, and placebo controlled in healthy male and female subjects.
The multiple ascending (MAD) part of the study was randomized, double-blind, and placebo controlled in healthy male and female subjects. Up to five regimens are planned to be tested in up to 5 cohorts of 8 subjects each (Cohort 2.1 to 2.5). Within each cohort, 6 subjects were to receive Compound 1 and 2 subjects were to receive placebo. Subjects in Cohort 2.1 and 2.2 were to be dosed for 14 days, subjects in Cohort 2.3 to 2.5 were to be dosed for up to 21 days.
The amount of HTT mRNA was then evaluated by RT-PCR 6 hours after administration of Compound 1 on day 14.
Results from measurement of HTT RNA in the whole blood of human subject administered a placebo or 15 or 30 mg of Compound 1, as described in the Multiple Ascending Dose (MAD) study above are illustrated in FIG. 15. HTT splicing was monitored after the final dose at day 14, calculated as % HTT remaining from baseline (pre-dose day 0).

The nature of series [2]: Phase 1 study: Compound 1 levels in CSF compared with plasma. Format: in vivo, human. An excerpt:
The concentrations of Compound 1 in plasma and CSF were to be assessed in an open-label design in healthy male and female subjects. A single dose of Compound 1 was to be administered daily for 7 days in 1 cohort of 6 subjects (Cohort 3.1) The dose level of Part 3 was to be determined based upon a review of the safety, tolerability, and PK data of Part 1 and Part 2 of the study. While the MAD dose was to be determined further in development, that dose and schedule was to be applied to this part of the study.
Eligibility was to be assessed during a screening period of up to 28 days. Subjects were to check into the clinic 1 day before dosing (Day −1). On the morning of Day 1 to Day 7, Compound 1 was to be orally administered after an overnight fast of at least 10 hours each day. Serial sampling of CSF and sampling of plasma for drug concentrations was to be performed on Day 7 The exact timing of the CSF and blood samples was to be determined based on the results of Part 1 and Part 2. Subjects were to be released from the clinic on Day 9 after all required study procedures are completed and if medically appropriate. A follow-up safety phone call was to occur 4 weeks (±1 week) after discharge on Day 9.
The CSF sampling enabled the evaluation of pharmacokinetics of Compound 1 in the CSF wherein Compound 1 levels in the CSF were compared with Compound 1 levels in plasma. […] The food effect portion enabled the evaluation of pharmacokinetics of Compound 1 in plasma after administration of a single dose of Compound 1 in healthy subjects.

A short description of the next series: Rat toxicology (NOAEL). In kind it is in vivo. The settings on record: male rats. The protocol:
The initial dose in the first cohort was ≥ 1/10 of the human equivalent dose (HED) estimated from the NOAEL (no observed adverse effect level) of the (male) rat, which is the most sensitive species, following the FDA guidance on the maximum recommended starting dose (MRSD) and EMA guidelines. The NOAEL of the rat is 6 mg/kg. […] The HED of 0.97 mg/kg was calculated; this scaled in a 70 kg human to 68 mg. Adjusting this dose to 1/10, the dose of the first cohort was 6.8; the actual administered dose will be 5 mg.

The next series concerns human HTT. Description: Transgenic mouse models of Huntington's disease. In kind it is in vivo. From the text: An international application published as WO2020/005873 identified a genus of compounds that can be used in the treatment of HD, methods of making the same and pharmaceutical formulations of the same. […] At present, only symptomatic treatments are available. Thus, to date, there is no small molecule therapy available to slow the progression of HD. Accordingly, there is a need for small molecule disease-modifying therapies for HD (i.e. therapeutic options that can slow disease progression).
At the selected doses of 10 mg QD and 20 mg QD, the predicted percent full-length HTT mRNA decreases are within the target range of 30 to 50% reduction from baseline. […] Therefore, the observed preclinical HTT mRNA changes are anticipated to result in similar decreases in HTT protein levels in HD patients. Thus, based upon the totality of the clinical and preclinical safety data to date, and the anticipated reduction in HTT mRNA and protein derived from clinical data and pharmacokinetic-pharmacodynamic modeling, the doses of 10 mg and 20 mg are expected to be safe, well tolerated, and beneficial to subjects with HD.

A short description of series [3]: Compound 1 in CSF and free plasma of non human primates. Format: in vivo. The method, then:
The two subjects in this cohort received 30 mg daily dose.

As for `CC1(C)CC(n2nnc3cc(-c4ccc(-n5nccn5)cc4O)nnc32)CC(C)(C)N1` [Compound 1, 2-[3-(2,2,6,6-tetramethylpiperidin-4-yl)-3H-[1,2,3]triazolo[4,5-c]pyridazin-6-yl]-5-(2H-1,2,3-triazol-2-yl)phenol], the “overall incidence of AEs” value in series [1] (SAD and MAD portions, versus placebo) was “comparable between subjects who received placebo and those who received Compound 1”. In series [1] (any dose, SAD and MAD portions), the “laboratory abnormalities or ECG findings” value is “no clinically significant laboratory abnormalities or electrocardiogram (ECG) findings”. In addition, the safety and tolerability entry in series [1] (healthy subjects, single doses 5 mg to 135 mg, multiple doses 15 mg and 30 mg up to 21 days) was “well-tolerated with no safety-related findings; also recorded: safe and generally well tolerated”. Moreover, the “lowering of HTT mRNA in whole blood” value in the series with HTT mRNA (MAD cohort, 15 mg or 30 mg for 14 days, 6 hours after dose on day 14) was “dose-dependent lowering”; with HTT mRNA (SAD cohort, 24 hours after single dose of 5, 15, 45, 90 or 135 mg) it was “dose-dependent lowering”. Also, the “time of treatment until HTT mRNA levels reached steady state” value with HTT mRNA (Multiple Ascending Dose Study) lay in the range of 4 to 5 days. Moreover, the “Compound 1 levels in the CSF compared with plasma” value in series [2] (healthy subjects, 30 mg daily dose) was “equal to or greater than levels observed in plasma; also recorded: at least equivalent or greater than levels observed in the plasma”. Besides, the “blood brain barrier penetration” value in series [2] (humans) is on record as “crossed the blood brain barrier”; in series [3], “crosses the Blood Brain Barrier”. Also, the efflux result in series [2] (humans) is “not subject to efflux”. Also, in “Rat toxicology (NOAEL)”, the “observation that set the NOAEL” value is “germ cell exfoliation in epididymis and testes”. The “relation of HTT pre-mRNA splicing to protein lowering” value with human HTT (bacterial artificial chromosome transgenic mouse model of HD) is “strong correlation between levels of HTT pre-mRNA splicing and the degree of protein lowering”. For the same compound, the “reduction of human HTT production in vivo” value with human HTT (transgenic mouse models of Huntington's disease, results not yet published) is “effective in reducing human HTT production in vivo”.
